From patent publication US9949938B2, “CoQ10 (ubiquinone, ubiquinol), vitamin A (retinoid acid, retinol), vitamin E (tocotrienol, tocopherol) and methods of use” (AMERICAN RIVER NUTRITION, priority 2013, dated 2018)

Columns and labels:
[1] = CoQ10 with and without tocotrienol in hydrochloric acid (pH<2), 30 minutes, simulated gastric conditions; format: physicochemical; conditions: in the presence of tocotrienol versus without; HCl pH<2, 30 minutes
Protocol: 100 mg CoQ10 (ubiquinone or ubiquinol), with and without tocotrienol, was placed in a beaker with acid (hydrochloric acid) (pH<2) for 30 minutes to simulate gastric conditions.

[2] = gastric conditions, pH<2, 30 minutes; cited from earlier work

Row | SMILES | CoQ10 content (both ubiquinone or ubiquinol) after acid [1] | ubiquinol converted to ubiquinone [2]
1 | COC1=C(OC)C(=O)C(C/C=C(\C)CC/C=C(\C)CC/C=C(\C)CC/C=C(\C)CC/C=C(\C)CC/C=C(\C)CC/C=C(\C)CC/C=C(\C)CC/C=C(\C)CCC=C(C)C)=C(C)C1=O [CoQ10, 2,3-dimethoxy-5-methyl-6-decaprenil-1,4-benzoquinone] | higher content | 
2 | COc1c(O)c(C)c(C/C=C(\C)CC/C=C(\C)CC/C=C(\C)CC/C=C(\C)CC/C=C(\C)CC/C=C(\C)CC/C=C(\C)CC/C=C(\C)CC/C=C(\C)CCC=C(C)C)c(O)c1OC [ubiquinol] |  | about 50%
